Tests used:
Sprague-Dawley rats = details: rat, in vivo
Gottingen Minipigs = details: minipig, in vivo
Description: The broad aim of the study was to evaluate the potential dermal toxicity of DMSO when administered topically to four groups of Gottingen Minipigs® for 52 weeks at concentrations of 0, 9%, 45.5% and 90% (w/w) and to evaluate reversibility, progression, or delayed appearance of any observed changes following a 1-month postdose observation period. Two additional groups of Gottingen Minipigs® were dosed topically for 39 weeks at 0% and 90% followed by a 4-month recovery post dose observation period.
Four groups consisting of six animals/sex/group received DMSO at respective dose levels of 0, 9, 45.5, or 90% (w/w) by dermal application three times a day for 364 consecutive days. Following 52 weeks of administration, two animals/sex at 0, 9, 45.5, and 90% dose levels were maintained for a 4-week recovery period. Two additional groups consisting of six animals/sex/group received the control or 90% (w/w) DMSO by dermal application three times a day for 273 consecutive days. Following 39 weeks of administration, two animals/sex at 0 and 90% dose levels were maintained for a 4 month recovery period. […]
Clinical observations were conducted weekly. At the end of the each treatment and recovery period, necropsy examinations were performed, organ weights were recorded, and selected tissues were microscopically examined. […]

[1] = test system: subjects with primary osteoarthritis of the knee; assay: 12-week randomized controlled trial: safety (adverse events, laboratory parameters, ocular examination); assay type: in vivo, human
Description: Study Design: Eligible subjects were stratified by the investigator at baseline into stratum 1 (no pain and normal radiological examination in the non-study knee) or stratum 2 (pain and/or abnormal radiological examination in the non-study knee), and then randomized into the trial by receiving the next numbered study kit at that clinic for that stratum. […] Subjects applied 40 drops of solution (approximately 1.2 mL) around the entire circumference of the study knee, without massage, 4 times daily, and took one study tablet daily for up to 12 weeks.
Each subject completed a full efficacy assessment questionnaire after randomization at baseline and at 4, 8 and 12 weeks, or at drop out. […] The POHA asked the question, “Considering all the ways your osteoarthritic (study) knee and its treatment affect you, including both positive and negative effects, how would you rate your overall state of health in the past 48 hours?” Secondary efficacy variables were WOMAC stiffness and patient global assessment (“PGA”) of knee osteoarthritis. The PGA asked the question, “How has the osteoarthritis in your study joint been over the last 48 hours?” The POHA and PGA were scored on a 5-point Likert scale. There was no assessment of the non-treated knee. […] Adverse events were categorized according to Coding Symbols for Thesaurus of Adverse Reaction Terms (“COSTART”). Blood and urine samples were obtained for routine laboratory analysis at baseline, 4 and 12 weeks. Ocular examination (visual acuity test, slit lamp examination and lens assessment) was conducted at the baseline and final visit.
For a missing final score, last observation was carried forward (“LOCF”). Safety analyses were performed on all subjects who received even one dose of either study medication. There was no imputation of missing safety data.

[2] = cited from earlier work
[3] = test system: symptomatic primary osteoarthritis of the knee; assay: 12-week double-blind, double-dummy randomized controlled trial: efficacy (WOMAC, POHA, PGA); assay type: in vivo, human; details: 12 weeks
Description: This randomized, double-blind, double-dummy, placebo-, vehicle- and active-controlled study was conducted at 40 outpatient centers in Canada and 21 centers in the United States following approval by the appropriate institutional review boards. Eligible subjects, after written informed consent, included men and non-pregnant women aged 40-85 with primary OA of the knee based on (i) standard radiological criteria for OA (Altman, R D, et al., Atlas of individual radiographic features in osteoarthritis. […] J Rheumatol. 1988 December; 15(12):1833-40). All knee films were reviewed by a single radiologist and each compartment was scored (none=1, mild=2, moderate=3, severe=4). Only one knee was treated; where both knees met all entry criteria, the more painful knee (or dominant knee if they scored the same) was selected. Standard exclusion criteria were employed, as described in Roth S H, Shainhouse J Z. Efficacy and safety of a topical diclofenac solution ([…]®) in the treatment of primary osteoarthritis of the knee: a randomized, double-blind, vehicle-controlled clinical trial. Arch Intern Med. 2004; 164:2017-23. Study Design: […] Each study kit contained topical solution and oral tablets for one of the five treatment regimens: […] Topical Diclofenac Solution plus oral diclofenac tablets. […] Concomitant analgesic and anti-inflammatory medications, including over the counter NSAIDs and other analgesics, were prohibited. Continuation of stable treatment with glucosamine, chondroitin, anti-depressants or a proton pump inhibitor (previous 90 days), or low-dose (<325 mg/day) acetylsalicylic acid (previous 30 days) was permitted. Acetaminophen was provided, and permitted (up to four 325-mg caplets per day) except during the 3 days before each efficacy assessment. Other topical products on the knee, including skin emollients, were prohibited. A patient with a gastrointestinal adverse event was allowed to start a proton pump inhibitor. Compliance with the treatment regimen was assessed by weighing the solution bottles and counting study tablets at each clinic visit. […] of randomized placebo controlled clinical trials. J Rheumatol. 2006; 33:1841-4), and patient overall health assessment (“POHA”). The POHA asked the question, “Considering all the ways your osteoarthritic (study) knee and its treatment affect you, including both positive and negative effects, how would you rate your overall state of health in the past 48 hours?” Secondary efficacy variables were WOMAC stiffness and patient global assessment (“PGA”) of knee osteoarthritis. The PGA asked the question, “How has the osteoarthritis in your study joint been over the last 48 hours?” The POHA and PGA were scored on a 5-point Likert scale. There was no assessment of the non-treated knee. […] Adverse events were categorized according to Coding Symbols for Thesaurus of Adverse Reaction Terms (“[…]”). Blood and urine samples were obtained for routine laboratory analysis at baseline, 4 and 12 weeks. Ocular examination (visual acuity test, slit lamp examination and lens assessment) was conducted at the baseline and final visit. All planned analyses were specified a priori. […] Statistical tests were two-sided at the 5% level of significance. All efficacy analyses were by analysis of covariance of the change in score from baseline to landmark final assessment, with baseline score as the covariate. Subjects in both randomization strata were combined for all analyses. Secondary comparisons included topical diclofenac vs. placebo for the secondary variables, and topical diclofenac vs. DMSO vehicle and DMSO vehicle vs. placebo for all variables. A post hoc efficacy analysis compared topical diclofenac vs. oral diclofenac and topical diclofenac+oral diclofenac vs. oral diclofenac. For a missing final score, last observation was carried forward (“LOCF”). Safety analyses were performed on all subjects who received even one dose of either study medication. There was no imputation of missing safety data. […]

[4] = clinical trials, combination compared to oral diclofenac alone
[5] = normal at baseline to above upper limit of normal
[6] = 50 mg of oral diclofenac TID, label of Voltaren Gel
[7] = mean (SD), maximum score 4, mITT

C[S+](C)[O-] [DMSO, Dimethyl sulfoxide]
ophthalmoscopic abnormalities (Sprague-Dawley rats): No test article-related ophthalmoscopic abnormalities
ophthalmoscopic abnormalities (Gottingen Minipigs): no test article-related ophthalmoscopic abnormalities of any kind
risk for development of lens opacities or refractive index changes (Gottingen Minipigs): no increased risk for development of lens opacities or refractive index changes

O=C(O)Cc1ccccc1Nc1c(Cl)cccc1Cl [ODiclo, diclofenac]
Abdominal pain ([1]; 12 weeks): 11 (7.3) number (%) of subjects
Abnormal taste sensation or odor ([1]; 12 weeks): 0 (0.0) number (%) of subjects
Any adverse event ([1]; 12 weeks): 94 (62.3) number (%) of subjects
Any digestive system event ([1]; 12 weeks): 36 (23.8) number (%) of subjects
Any skin/appendages event ([1]; 12 weeks): 11 (7.3) number (%) of subjects
Contact dermatitis (application site) ([1]; 12 weeks): 1 (0.7) number (%) of subjects
Contact dermatitis with vesicles (application site) ([1]; 12 weeks): 1 (0.7) number (%) of subjects
Diarrhea ([1]; 12 weeks): 7 (4.6) number (%) of subjects
Dry skin (application site) ([1]; 12 weeks): 4 (2.6) number (%) of subjects
Dyspepsia ([1]; 12 weeks): 6 (4.0) number (%) of subjects
Nausea ([1]; 12 weeks): 3 (2.0) number (%) of subjects
Pruritis (application site) ([1]; 12 weeks): 0 (0.0) number (%) of subjects
Rash ([1]; 12 weeks): 0 (0.0) number (%) of subjects
Rectal hemorrhage ([1]; 12 weeks): 0 (0.0) number (%) of subjects
incidence of hypertension ([1]; 12 weeks): 1.3%
increase in any liver enzyme to three times the upper limit of normal ([1]; 12 weeks): 2 subjects
Abnormal vision ([1]; 12 weeks, other system event): 4 (2.6) number (%) of subjects
Accidental injury ([1]; 12 weeks, other system event): 4 (2.6) number (%) of subjects
Arthralgia ([1]; 12 weeks, other system event): 12 (7.9) number (%) of subjects
Back pain ([1]; 12 weeks, other system event): 11 (7.3) number (%) of subjects
Conjunctivitis ([1]; 12 weeks, other system event): 3 (2.0) number (%) of subjects
Headache ([1]; 12 weeks, other system event): 26 (17.2) number (%) of subjects
Pain ([1]; 12 weeks, other system event): 8 (5.3) number (%) of subjects
Respiratory disorder ([1]; 12 weeks, other system event): 8 (5.3) number (%) of subjects
ALT, mean change ([1]; baseline to final, mean (SD)): 7.2 (25.3) U/L
AST, mean change ([1]; baseline to final, mean (SD)): 2.5 (10.9) U/L
Creatinine, mean change ([1]; baseline to final, mean (SD)): 3.1 (11.0) μmol/L
Hemoglobin, mean change ([1]; baseline to final, mean (SD)): −3.8 (7.1) g/L
abnormal creatinine [1, 4]: 7%
abnormal hemoglobin [1, 4]: 9%
abnormal urea [1, 4]: 12%
rate of rectal hemorrhage ([1]; clinical trials, combination of topical and oral diclofenac compared to oral diclofenac alone): less than 1%
ALT, normal to abnormal [1, 5]: 26 (18.8) N (%)
Creatinine, normal to abnormal [1, 5]: 10 (7.2) N (%)
Hemoglobin, normal to abnormal ([1]; normal at baseline to below lower limit of normal): 8 (5.8) N (%)
serious adverse events ([1]; number of events per arm, 12 weeks): 1
mean AUC0-24 [2, 6]: 3890 ng·h/mL
mean Cmax [2, 6]: 2270 ng/mL
predicted level of diclofenac reported with oral diclofenac ([2]; oral): 1500 ng/mL
PGA (patient global assessment of the study knee), change in score [3, 7]: −1.42 (1.29)
POHA (patient overall health assessment), change in score [3, 7]: −0.88 (1.31)
WOMAC Stiffness, change in score ([3]; mean (SD), maximum score 8, mITT): −2.07 (2.02)
WOMAC Pain, change in score (final score minus baseline score) ([3]; mean (SD), maximum score 20, mITT): −6.4 (4.1)
WOMAC Physical Function, change in score ([3]; mean (SD), maximum score 68, mITT): −17.5 (14.3)
improvement in variable score ([3]; oral diclofenac group): 40-48%

Reference: patent US20200352886A1 (priority 2009, published 2020)
